≈ marks a conversion by molar mass, not a printed value. Structures can show the parent of a compound that is named as a salt. Where two headings read alike, the source gives them in different places.
How the values were obtained:
Assay type in all cases: cell-based
[1] = test system: Streptococcus faecalis ATCC 10541; experiment: Antibacterial activity, minimum growth inhibitory concentration by agar dilution method (SF); settings: Enterococcus faecalis
Description: (§1) The various compounds of formula (I) of Examples 1-26 were tested for antibacterial activity against 6 microorganisms. […]. In this table, the following symbols are used:
SF: Streptococcus faecalis ATCC 10541

[2] = test system: Staphylococcus aureus ATCC 6538P; experiment: Antibacterial activity, minimum growth inhibitory concentration by agar dilution method (SA); settings: ATCC6538P
Description: as §1
SA: Staphylococcus aureus ATCC 6538P

[3] = test system: Bacillus subtilis 10707; experiment: Antibacterial activity, minimum growth inhibitory concentration by agar dilution method (BS)
Description: as §1
BS: Bacillus subtilis 10707

[4] = test system: Proteus vulgaris ATCC 6897; experiment: Antibacterial activity, minimum growth inhibitory concentration by agar dilution method (PV)
Description: as §1
PV: Proteus vulgaris ATCC 6897

[5] = test system: Shigella sonnei ATCC 9290; experiment: Antibacterial activity, minimum growth inhibitory concentration by agar dilution method (SS)
Description: as §1
SS: Shigella sonnei ATCC 9290

[6] = test system: Klebsiella pneumoniae ATCC 10031; experiment: microbe, parasite or virus in culture; settings: ATCC10031, pH 7, read-out: MIC, Klebsiella pneumoniae (KP)
Description: In this table, the following symbols are used:
KP: Klebsiella pneumoniae ATCC 10031

[7] = ATCC10541, pH 7, read-out: MIC, Streptococcus faecalis (SF)
[8] = pH 7, read-out: MIC, Staphylococcus aureus (SA)
[9] = Bacillus subtilis, 10707, pH 7, read-out: MIC, Bacillus subtilis (BS)
[10] = ATCC6897, pH 7, read-out: MIC, Proteus vulgaris (PV)
[11] = ATCC9290, pH 7, read-out: MIC, Shigella sonnei (SS)

SMILES	MIC [1, 7] [µg/mL]	MIC [2, 8] [µg/mL]	MIC [3, 9] [µg/mL]	MIC [4, 10] [µg/mL]	MIC [5, 11] [µg/mL]	MIC [6] [µg/mL]	MIC ([1]; ATCC10541, agar dilution method, pH 7.0, read-out: MIC, Streptococcus faecalis (SF)) [µg/mL]	MIC ([2]; agar dilution method, pH 7.0, read-out: MIC, Staphylococcus aureus (SA)) [µg/mL]	MIC ([3]; Bacillus subtilis, 10707, agar dilution method, pH 7.0, read-out: MIC, Bacillus subtilis (BS)) [µg/mL]	MIC ([4]; ATCC6897, agar dilution method, pH 7.0, read-out: MIC, Proteus vulgaris (PV)) [µg/mL]	MIC ([5]; ATCC9290, agar dilution method, pH 7.0, read-out: MIC, Shigella sonnei (SS)) [µg/mL]
CO[C@@]12[C@H](COC(N)=O)C3=C(C(=O)C(C)=C(NCCSSCCC(N)C(=O)O)C3=O)N1C[C@@H]1N[C@@H]12 (mixture of isomers) [Compound 24, 7-N-[2-[(DL-Homocystein-S-yl)thio]ethyl]mitomycin C]	0.63	0.08	< 0.02	1.3	40	0.31					
CO[C@@]12[C@H](COC(N)=O)C3=C(C(=O)C(C)=C(NCCSSc4ccccc4)C3=O)N1C[C@@H]1N[C@@H]12 [Compound 1, 7-N-[2-(Phenyldithio)ethyl]mitomycin C]	0.02 (≈ 0.0398 µM)	0.02 (≈ 0.0398 µM)	< 0.01	1.3 (≈ 2.59 µM)	20 (≈ 39.8 µM)	0.31 (≈ 0.617 µM)					
CO[C@@]12[C@H](COC(N)=O)C3=C(C(=O)C(C)=C(NCCSSc4ccccc4N)C3=O)N1C[C@@H]1N[C@@H]12 [Compound 2, 7-N-[2-(2-Aminophenyldithio)ethyl]mitomycin C]	< 0.02	0.04 (≈ 0.0773 µM)	< 0.02	2.5 (≈ 4.83 µM)	20 (≈ 38.6 µM)	0.31 (≈ 0.599 µM)					
CO[C@@]12[C@H](COC(N)=O)C3=C(C(=O)C(C)=C(NCCSSc4ccc(NC(C)=O)cc4)C3=O)N1C[C@H]1[C@@H]2N1C (some centres unmarked) [Compound 6, 7-N-[2-(4-Acetamidophenyldithio)ethyl]porfiromycin]	0.63 (≈ 1.1 µM)	1.3 (≈ 2.27 µM)	0.08 (≈ 0.139 µM)			> 20					
CO[C@@]12[C@H](COC(N)=O)C3=C(C(=O)C(C)=C(NCCSSc4ccc([N+](=O)[O-])cc4)C3=O)N1C[C@@H]1N[C@@H]12 [Compound 8, 7-N-[2-(4-Nitrophenyldithio)ethyl]mitomycin C]	0.16 (≈ 0.292 µM)	0.16 (≈ 0.292 µM)	0.08 (≈ 0.146 µM)	2.5 (≈ 4.57 µM)	5 (≈ 9.13 µM)	1.3 (≈ 2.37 µM)					
CO[C@@]12[C@H](COC(N)=O)C3=C(C(=O)C(C)=C(NCCSSc4ccc(C)cc4)C3=O)N1C[C@@H]1N[C@@H]12 [Compound 10, 7-N-[2-(4-Methylphenyldithio)ethyl]mitomycin C]	0.08 (≈ 0.155 µM)	0.04 (≈ 0.0774 µM)	0.02 (≈ 0.0387 µM)	2.5 (≈ 4.84 µM)	> 20	1.3 (≈ 2.52 µM)					
CO[C@@]12[C@H](COC(N)=O)C3=C(C(=O)C(C)=C(NCCSSc4c(F)c(F)cc(F)c4F)C3=O)N1C[C@@H]1N[C@@H]12 [Compound 13, 7-N-[2-(2,3,5,6-Tetrafluorophenyldithio)ethyl]mitomycin C]	0.31 (≈ 0.54 µM)	0.16 (≈ 0.278 µM)	0.02 (≈ 0.0348 µM)	5 (≈ 8.7 µM)	10 (≈ 17.4 µM)	0.63 (≈ 1.1 µM)					
CC1=C(NCCSSC[C@H](NC(=O)CC[C@H](N)C(=O)O)C(=O)NCC(=O)O)C(=O)C2=C(C1=O)N1C[C@H]3[C@H](N3C)[C@]1(O)[C@H]2COC(N)=O (stereo partly drawn) [Compound 23, 7-N-[2-[(γ-L-glutamyl-L-cysteinylglycin-S-yl)thio]ethyl]-mitomycin D potassium salt]	6.3	6.3	6.3	13							
CCOC(=O)CNC(=O)[C@H](CSSCCNC1=C(C)C(=O)C2=C(C1=O)[C@@H](COC(N)=O)[C@@]1(OC)[C@H]3N[C@H]3CN21)NC(=O)CC[C@H](N)C(=O)O [Compound 25, 7-N-[2-[(γ-L-Glutamyl-L-cysteinyl-ethyl-glycinat-S-yl)thio]ethyl]mitomycin C]	0.63 (≈ 0.866 µM)	0.16 (≈ 0.22 µM)	0.04 (≈ 0.055 µM)	10 (≈ 13.7 µM)		2.5 (≈ 3.43 µM)					
CCOC(=O)CNC(=O)[C@H](CSSCCNC1=C(C)C(=O)C2=C(C1=O)[C@H](COC(N)=O)[C@@]1(O)[C@@H]3[C@H](CN21)N3C)NC(=O)CC[C@H](N)C(=O)O (some centres unmarked) [Compound 26]	13 (≈ 17.9 µM)	6.3 (≈ 8.66 µM)	1.6 (≈ 2.2 µM)	13 (≈ 17.9 µM)		25 (≈ 34.3 µM)					
CO[C@@]12[C@H](COC(N)=O)C3=C(C(=O)C(C)=C(N)C3=O)N1C[C@@H]1N[C@@H]12 [MM-C, Mitomycin C, reference compound]							0.04 (≈ 0.12 µM)	0.02 (≈ 0.0598 µM)	0.01 (≈ 0.0299 µM)	0.04 (≈ 0.12 µM)	1.3 (≈ 3.89 µM)

From patent US4691024A, “New mitomycin derivatives, preparation thereof and pharmaceutical compositions containing them” (priority 1984, dated 1987)
